According to the supplement of paper PMC10307832:

Key:
Test in all cases: relative viability (nuclei count vs DMSO), 5 days (fraction); higher = more cells survive
[1] = compound: CC[C@@H](C)CNCC(=O)N1CCC2=C([C@@H]1COC3=CC=CC(=C3)C)C=CS2 [RU-SKI 43] + C[C@]1(O)C[C@@H](c2nc(-c3ccc4ccc(-c5ccccc5)nc4c3)c3c(N)nccn32)C1 [Linsitinib] (partner 1 µM)
In short: (§1)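 Lung cancer cell lines, seeded in 1536-well plates, were treated the following day by pin tool with a single drug or with five library-drug doses (not always all listed) in √10 steps on top of a fixed anchor-drug dose. Cells were fixed and nuclei stained in one step after 5 days, and nuclei were counted. Relative viability is the nuclei count for treated wells divided by that for vehicle wells, reported as medians of duplicate plates.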

[2] = compound: CCc1c2c(nc3ccc(OC(=O)N4CCC(N5CCCCC5)CC4)cc13)-c1cc3c(c(=O)n1C2)COC(=O)[C@]3(O)CC [Irinotecan] + Nc1ncn([C@H]2C[C@H](O)[C@@H](CO)O2)c(=O)n1 [Decitabine] (partner 2 µM)
In short: as §1

[3] = compound: CCc1c2c(nc3ccc(OC(=O)N4CCC(N5CCCCC5)CC4)cc13)-c1cc3c(c(=O)n1C2)COC(=O)[C@]3(O)CC [Irinotecan] + COc1cc2c(Oc3ccc(NC(=O)C4(C(=O)Nc5ccc(F)cc5)CC4)cc3F)ccnc2cc1OCCCN1CCOCC1 [Foretinib] (partner 0.25 µM)
In short: as §1

[4] = compound: Cn1cc(-c2cnc3ccc4ccc(CS(=O)(=O)NCc5ccccn5)cc4c(=O)c3c2)cn1 [MK-8033] + Cc1nc(NC(=O)N2CCC[C@H]2C(N)=O)sc1-c1ccnc(C(C)(C)C(F)(F)F)c1 [Alpelisib] (partner 2 µM)
In short: as §1

| Cell Line | relative viability ([1]; first compound 0.1 µM) | relative viability ([1]; first compound 0.3162 µM) | relative viability ([1]; first compound 1 µM) | relative viability ([1]; first compound 3.162 µM) | relative viability ([1]; first compound 10 µM) | relative viability ([2]; first compound 0.6325 µM) | relative viability ([2]; first compound 2 µM) | relative viability ([2]; first compound 6.325 µM) | relative viability ([2]; first compound 20 µM) | relative viability ([3]; first compound 0.6325 µM) | relative viability ([3]; first compound 2 µM) | relative viability ([3]; first compound 6.325 µM) | relative viability ([3]; first compound 20 µM) | relative viability ([4]; first compound 0.02 µM) | relative viability ([4]; first compound 0.06325 µM) | relative viability ([4]; first compound 0.2 µM) | relative viability ([4]; first compound 0.6325 µM) | relative viability ([4]; first compound 2 µM) |
| --- | --- | --- | --- | --- | --- | --- | --- | --- | --- | --- | --- | --- | --- | --- | --- | --- | --- | --- |
| COR-L23 | 0.971 | 0.847 | 0.815 | 0.83 | 1.09 | 0.314 | 0.336 | 0.192 | 0.104 | 0.525 | 0.446 | 0.183 | 0.192 | 0.71 | 0.864 | 0.74 | 0.828 | 0.645 |
| NCI-H647 | 1.15 | 1.56 | 1.38 | 1.47 | 0.982 | 0.39 | 0.238 | 0.157 | 0.159 | 0.986 | 0.742 | 0.174 | 0.132 | 1.18 | 1.02 | 0.929 | 1.16 | 1.07 |
| NCI-H1793 | 0.98 | 0.959 | 0.988 | 0.928 | 0.809 |  | 0.315 | 0.262 | 0.258 |  | 0.501 | 0.226 | 0.185 | 0.608 |  | 0.54 | 0.603 | 0.816 |
| LCLC-97TM1 | 0.221 |  | 0.172 | 0.201 | 0.182 | 0.135 | 0.107 | 0.105 | 0.115 | 0.435 | 0.172 | 0.151 | 0.194 | 0.199 | 0.234 | 0.205 | 0.207 | 0.235 |
| HOP-62 | 1.04 | 0.938 | 1.1 | 1.17 | 1.04 | 0.22 | 0.198 | 0.187 | 0.212 | 0.7 | 0.256 | 0.199 | 0.195 | 0.987 | 0.75 | 1.05 | 0.956 | 0.938 |
| NCI-H520 | 0.94 | 0.906 | 0.929 | 0.996 | 0.848 | 0.392 | 0.396 | 0.267 | 0.195 | 0.623 | 0.679 | 0.352 | 0.283 | 0.806 | 0.841 | 0.832 | 0.905 | 0.871 |
| NCI-H1734 | 0.905 | 0.818 | 0.918 | 0.934 | 0.791 |  | 0.27 | 0.18 | 0.197 |  | 0.52 | 0.193 | 0.187 | 0.628 | 0.57 | 0.644 | 0.654 | 0.72 |
| A549 | 0.73 | 0.762 | 0.656 | 0.596 | 0.613 |  | 0.26 | 0.197 | 0.0737 | 0.885 | 0.611 | 0.122 | 0.0515 | 0.692 | 0.685 | 0.83 | 0.456 | 0.651 |
| NCI-H1975 | 0.985 | 1.1 | 0.951 | 0.996 | 0.869 | 0.374 | 0.438 | 0.342 | 0.141 | 0.816 | 0.964 | 0.385 | 0.158 | 0.604 | 0.557 | 0.584 | 0.571 | 0.649 |
